# Test results taken from patent US20240059703A1 (AMGEN INC., priority 2021, published 2024).
# Experiments:
# [1] = test system: MIA PaCa-2 (human pancreatic carcinoma) cells; assay: Cell Viability Assay (CellTiter-Glo), MIA PaCa-2; type: cell-based; conditions: Homo sapiens, MIA PaCa-2, 72 h
# Protocol: Serially-diluted compound or DMSO was added to the cells, and plates were incubated at 37° C., 5% CO2 for 72 h. Cell viability was measured using a CellTiter-Glo® Luminescent Cell Viability Assay kit (Promega) according to the manufacturer's protocol. The luminescence signal of treated samples was normalized to DMSO control, and data were analyzed using a 4-parameter logistic model to calculate IC50 values.
# KRAS G12C = KRAS G12C (Homo sapiens (Human), UniProt P01116, C118A/G12C); assay: 2 h coupled exchange assay; type: biochemical; conditions: Avg 2 h Coupled exchange IC50, 2 h compound pre-incubation
# Protocol: The term “2 h coupled exchange assay” or “20 h coupled exchange assay” as used herein refers to the assay described in the Section entitled “BIOLOGICAL EVALUATION.”
# [2] = test system: A549 (human lung carcinoma) cells; assay: Cell Viability Assay (CellTiter-Glo), A549; type: cell-based; conditions: Homo sapiens, A549, 72 h
# In short: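 Seeding at 1.67E+04 cells/mL is followed by overnight attachment at 37° C., 5% CO2. Serially diluted compound is added for 72 h. Viability is read by CellTiter-Glo luminescence, scaled to DMSO and fitted (4-parameter logistic) to give IC50.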
# Sequence of KRAS G12C (P01116 other isoform, or with tags, fused parts or gaps G12C/C118A): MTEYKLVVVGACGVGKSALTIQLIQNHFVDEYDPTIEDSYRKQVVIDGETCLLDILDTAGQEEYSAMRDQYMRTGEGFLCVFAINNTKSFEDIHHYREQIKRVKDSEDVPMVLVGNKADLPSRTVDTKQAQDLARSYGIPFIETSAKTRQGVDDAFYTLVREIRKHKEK
SMILES,IC50 [1],IC50 (KRAS G12C),IC50 [2]
"Cc1ncsc1N1CCc2c(nc(N3CCC4(CN(C(=O)/C=C/CN(C)C)C4)C3)c(C#N)c2-c2ccccc2F)C1 [Example 21-31, 2-(2-((2E)-4-(dimethylamino)-2-butenoyl)-2,6-diazaspiro[3.4]octan-6-yl)-4-(2-fluorophenyl)-7-(4-methyl-1,3-thiazol-5-yl)-5,6,7,8-tetrahydro-1,7-naphthyridine-3-carbonitrile]",738 nM,641 nM,> 5000 nM
"C=CC(=O)N1CC2(CCN(c3nc4c(c(-c5ccc(F)cc5F)c3C#N)CCN(C3CCCN(C)C3)C4)C2)C1 [Example 21-32, 4-(2,4-difluorophenyl)-7-((3R)-1-methyl-3-piperidinyl)-2-(2-(2-propenoyl)-2,6-diazaspiro[3.4]octan-6-yl)-5,6,7,8-tetrahydro-1,7-naphthyridine-3-carbonitrile|4-(2,4-difluorophenyl)-7-((3S)-1-methyl-3-piperidinyl)-2-(2-(2-propenoyl)-2,6-diazaspiro[3.4]octan-6-yl)-5,6,7,8-tetrahydro-1,7-naphthyridine-3-carbonitrile]",1450 nM,355 nM,8220 nM
"C=CC(=O)N1CC2(CCN(c3nc4c(c(-c5ccccc5F)c3C#N)CCN(C[C@@H]3CCC(=O)N3)C4)C2)C1 [Example 21-33, 4-(2-fluorophenyl)-7-(((2S)-5-oxo-2-pyrrolidinyl)methyl)-2-(2-(2-propenoyl)-2,6-diazaspiro[3.4]octan-6-yl)-5,6,7,8-tetrahydro-1,7-naphthyridine-3-carbonitrile]",5520 nM,957 nM,16100 nM
"C=CC(=O)N1CC2(CCN(c3nc4c(c(-c5ccccc5F)c3C#N)CCN(C(=O)[C@@H]3CCCN3C)C4)C2)C1 [Example 21-34, 4-(2-fluorophenyl)-7-(1-methyl-L-prolyl)-2-(2-(2-propenoyl)-2,6-diazaspiro[3.4]octan-6-yl)-5,6,7,8-tetrahydro-1,7-naphthyridine-3-carbonitrile]",6290 nM,911 nM,> 25000 nM
"C=CC(=O)N1CC2(CCN(c3nc4c(c(-c5cc(O)ccc5Cl)c3C#N)CCN(C3CCCN(C)C3)C4)C2)C1 [Example 21-36, 4-(2-chloro-5-hydroxyphenyl)-7-((3R)-1-methyl-3-piperidinyl)-2-(2-(2-propenoyl)-2,6-diazaspiro[3.4]octan-6-yl)-5,6,7,8-tetrahydro-1,7-naphthyridine-3-carbonitrile 4-(2-chloro-5-hydroxyphenyl)-7-((3S)-1-methyl-3-piperidinyl)-2-(2-(2-propenoyl)-2,6-diazaspiro[3.4]octan-6-yl)-5,6,7,8-tetrahydro-1,7-naphthyridine-3-carbonitrile]",174 nM,167 nM,> 5000 nM
"C=CC(=O)N1CC2(CCN(c3nc4c(c(-c5ccccc5F)c3C#N)CCN(C3CC3)C4)C2)C1 [Example 21-37, 7-cyclopropyl-4-(2-fluorophenyl)-2-(2-(2-propenoyl)-2,6-diazaspiro[3.4]octan-6-yl)-5,6,7,8-tetrahydro-1,7-naphthyridine-3-carbonitrile]",461 nM,90 nM,> 5000 nM
"C=CC(=O)N1CC2(CCN(c3nc4c(c(-c5ccccc5F)c3C#N)CCN(C(C)CN(C)C)C4)C2)C1 [Example 21-38, 7-((2R)-1-(dimethylamino)-2-propanyl)-4-(2-fluorophenyl)-2-(2-(2-propenoyl)-2,6-diazaspiro[3.4]octan-6-yl)-5,6,7,8-tetrahydro-1,7-naphthyridine-3-carbonitrile 7-((2S)-1-(dimethylamino)-2-propanyl)-4-(2-fluorophenyl)-2-(2-(2-propenoyl)-2,6-diazaspiro[3.4]octan-6-yl)-5,6,7,8-tetrahydro-1,7-naphthyridine-3-carbonitrile]",196 nM,178 nM,> 5000 nM
"C=CC(=O)N1CC2(CCN(c3nc4c(c(-c5ccccc5F)c3C#N)CCN(CCCOC)C4)C2)C1 [Example 21-39, 4-(2-fluorophenyl)-7-(3-methoxypropyl)-2-(2-(2-propenoyl)-2,6-diazaspiro[3.4]octan-6-yl)-5,6,7,8-tetrahydro-1,7-naphthyridine-3-carbonitrile]",7180 nM,1120 nM,17600 nM
"C=CC(=O)N1CC2(CCN(c3nc4c(c(-c5cc(O)ccc5Cl)n3)CCC(c3scnc3C)C4)C2)C1 [Example 22-4, 1-(6-((7R)-4-(2-chloro-5-hydroxyphenyl)-7-(4-methyl-1,3-thiazol-5-yl)-5,6,7,8-tetrahydro-2-quinazolinyl)-2,6-diazaspiro[3.4]octan-2-yl)-2-propen-1-one| 1-(6-((7S)-4-(2-chloro-5-hydroxyphenyl)-7-(4-methyl-1,3-thiazol-5-yl)-5,6,7,8-tetrahydro-2-quinazolinyl)-2,6-diazaspiro[3.4]octan-2-yl)-2-propen-1-one]",> 5000 nM,222 nM,> 5000 nM

# More lines, now with the values ahead:
IC50 [1],IC50 (KRAS G12C),IC50 [2],SMILES
507 nM,178 nM,> 5000 nM,"C=CC(=O)N1CC2(CCN(c3nc4c(c(-c5ncccc5C)c3C#N)CCC(c3scnc3C)=C4)C2)C1 [Example 23-1, 4-(3-Methyl-2-pyridinyl)-7-(4-methyl-1,3-thiazol-5-yl)-2-(2-(2-propenoyl)-2,6-diazaspiro[3.4]octan-6-yl)-5,6-dihydro-3-quinolinecarbonitrile]"
164 nM,26 nM,12600 nM,"C=CC(=O)N1CC2(CCN(c3nc4c(c(-c5ccccc5C)c3C#N)CCC(c3scnc3C)C4)C2)C1 [Example 23-2, (7R)-4-(2-methylphenyl)-7-(4-methyl-1,3-thiazol-5-yl)-2-(2-(2-propenoyl)-2,6-diazaspiro[3.4]octan-6-yl)-5,6,7,8-tetrahydro-3-quinolinecarbonitrile (7S)-4-(2-methylphenyl)-7-(4-methyl-1,3-thiazol-5-yl)-2-(2-(2-propenoyl)-2,6-diazaspiro[3.4]octan-6-yl)-5,6,7,8-tetrahydro-3-quinolinecarbonitrile]"
918 nM,72 nM,3690 nM,"C=CC(=O)N1CC2(CCN(c3nc4c(c(-c5ccccc5F)c3C#N)CCC(c3scnc3C)=C4)C2)C1 [Example 23-7, 4-(2-fluorophenyl)-7-(4-methyl-1,3-thiazol-5-yl)-2-(2-(2-propenoyl)-2,6-diazaspiro[3.4]octan-6-yl)-5,6-dihydro-3-quinolinecarbonitrile]"
2240 nM,169 nM,> 5000 nM,"C=CC(=O)N1CC2(CCN(c3nc4c(c(-c5ccccc5F)c3C#N)COC(c3scnc3C)C4)C2)C1 [Example 23-8, (7R)-4-(2-fluorophenyl)-7-(4-methyl-1,3-thiazol-5-yl)-2-(2-(2-propenoyl)-2,6-diazaspiro[3.4]octan-6-yl)-7,8-dihydro-5H-pyrano[4,3-b]pyridine-3-carbonitrile(7S)-4-(2-fluorophenyl)-7-(4-methyl-1,3-thiazol-5-yl)-2-(2-(2-propenoyl)-2,6-diazaspiro[3.4]octan-6-yl)-7,8-dihydro-5H-pyrano[4,3-b]pyridine-3-carbonitrile]"
916 nM,531 nM,16200 nM,"C=CC(=O)N1CC2(CCN(c3nc4c(c(-c5ncccc5C)c3C#N)CC[C@](C)(c3scnc3C)C4)C2)C1 [Example 23-9, (7S)-7-methyl-4-(3-methyl-2-pyridinyl)-7-(4-methyl-1,3-thiazol-5-yl)-2-(2-(2-propenoyl)-2,6-diazaspiro[3.4]octan-6-yl)-5,6,7,8-tetrahydro-3-quinolinecarbonitrile]"
